The values below come from patent US20220331448A1, “COMPOSITIONS AND METHODS FOR TREATING SUCCINIC SEMIALDEHYDE DEHYDROGENASE DEFICIENCY (SSADHD)” (Washington State University, priority 2018, published 2022).

Data set [1] relates to gamma-butyrolactone (GBL)-treated animals. The data set can be described thus: Block of sedative and motor effects of GBL in mice. Type of data set: in vivo. The settings on record: diclofenac 25 mg/kg with NCS-382 300 mg/kg.
For data set [2], the system named is aldh5a1−/− mice. The settings on record: cited from earlier work.
A short description of data set [3]: Pharmacokinetics after i.p. NCS-382 in C57/B6 mice. The following applies: i.p. 100 to 500 mg/kg.
The subject of data set [4] is gamma-butyrolactone (GBL)-treated animals. The settings on record: mouse, in vivo; cited from earlier work.
In data set [5] the test system is solute carriers (Slc) in aldh5a1−/− cortex. The data set can be described thus: Cortical expression of solute carriers after NCS-382 in aldh5a1−/− mice. The data set is classed as in vivo. The following applies: 300 mg/kg, 7 days. The text has this: Functional role of carriers: *17a6, *17a7, *17a8, vesicular glutamate (glu) transporter, glu cotransporter, and glu transporter 3, respectively; 1a1, *1a2, 1a3, 1a4, excitatory amino acid transporters 3, 2, 1 and 4, respectively; *32a1, GABA vesicular transporter; 38a1, Na+-coupled amino acid transporter 1 (glutamine transport); *6a1, plasma membrane GABA transporter; *6a11, 6a12, 6a13, Na+-dependent GABA presynaptic terminal reuptake, Na+/Cl−-dependent betaine, and Na+/Cl−-dependent GABA 2 transporters, respectively; 7a11, glutamate-cysteine antiporter.
(§1) Applicants subsequently turned attention to the transport of NCS-382 in vitro. […] Applicants examined cortical regions from the NCS-treated mice and evaluated the expression of a number of solute carriers involved in neurotransmitter transport. […] This finding is of interest in view of the significant depletion of glutathione in this animal model, the observation that glutathione is composed of glutamate, cysteine and glycine, and the earlier finding that glutamate/glutamine levels are abnormal in aldh5a1−/− brain (Gupta, J Pharmacol Exp Ther 302:180-187 (2004); Chowdhury, (2007)).

Data set [6] relates to Madin-Darby Canine Kidney (MDCK) cells. In words: Transport in MDCK cells. The data set is classed as in vitro ADME.
Source text: as §1

In data set [7] the test system is HepG2 cells. The data set can be described thus: Gene expression in HepG2 cells. The settings on record: 0.5 mM, altered >4-fold.
In data set [8] the test system is aldh5a1−/− NSCs. In words: Pharmacotoxicity in neural stem cells from aldh5a1−/− mice. The settings on record: high-dose.
For data set [9], the target named is GHB receptor (GHBR). The settings on record: relative to GHB; cited from earlier work.
A short description of data set [10]: Metabolism in mouse liver microsomes.
Data set [11] has as its system HepG2 cells. The data set can be described thus: Cellular toxicity in HepG2 cells. The following applies: up to 1 mM.
The nature of data set [12]: Metabolism in human liver microsomes. Background: Liver microsomes are a subcellular fraction often used to study metabolism.
Data set [13] relates to aldh5a1−/− mouse brain. The data set can be described thus: Brain gene expression (GABA(A) receptor subunits, AMPK/mTOR pathway) under Torin drugs. The data set is classed as in vivo.
The subject of data set [14] is aldh5a1−/− mice. The data set can be described thus: Video-recorded seizure activity after acute i.p. bumetanide. The data set is classed as in vivo. The text has this:
(§2) FIGS. 5A-5C—Intracellular chloride homeostasis, GABAergic neurotransmission and bumetanide in SSADHD (for abbreviations, see FIG. 1). (FIG. 5A) Schematic diagram of membrane ion transport and mechanism of action of bumetanide. (FIG. 5B) NKCC1 and KCC2 gene expression in the hypothalamus of aldh5a1+/+(n=5) and aldh5a1−/− (n=5) mice collected at postnatal day-of-life 20. Expression data were obtained using q-RT-PCR, validated pathway plates from Bio-Rad. (FIG. 5C) Time to sedation following acute dosing of 100 mg/kg bumetanide. Animals were evaluated at day of life (DOL) 20 and 24 for seizure events, and the time to immobilization (sedation) determined by visual recording using Noldus technology (see text). Bumetanide was administered intraperitoneally to the subject mice after 20 min. of initial observational recording, followed by an additional 20 minutes of recording. Total number of seizures was quantified in 5 min blocks of the total 40 min. recording period. Bumetanide was obtained from Enzo Life Sciences, Inc. (Farmingdale, N.Y., USA) and aseptically dissolved in DMSO vehicle. […] Abbreviations employed: n, number of animals studied; DOL, day of life; sec, seconds; min, minutes.
The potential therapeutic role of NKCC1 inhibition in SSADHD was next examined. […] Applicants' design was to quantify generalized tonic-clonic seizures in 5 minute epochs for 40 minutes in continuum. […]

Data set [15] deals with aldh5a1+/+ and aldh5a1−/− mice. In words: Time to immobilization (sedation) after acute i.p. bumetanide. The data set is classed as in vivo.
Source text: as §2
The potential therapeutic role of NKCC1 inhibition in SSADHD was next examined. In this context, Applicants postulated that there would be resistance to the sedative activity of NKCC1 inhibitors in SSADHD, because of the increased expression of NKCC1. Applicants treated aldh5a1+/+ and aldh5a1−/− mice with acute i.p. doses of bumetanide (25 and 100 mg/kg body weight) with video recording of seizure activity as well as assessment of the time to immobilization. […] Applicants employed Pinnacle technology (https://www.pinnaclet.com) technology for recording of animal behavior in conjunction with a rubric developed by Noldus technology to evaluate seizure activity (http://www.noldus.com/animal-behavior-research). Applicants' design was to quantify generalized tonic-clonic seizures in 5 minute epochs for 40 minutes in continuum. At the 20 minute mark, a single intraperitoneal administration of bumetanide (25 or 100 mg/kg) was given and the animals returned to the open field setting.

Data set [16] deals with aldh5a1−/− mice. The data set can be described thus: GHB and GABA by LC/MS-MS after ERT. The settings on record: enzyme treated animals. The data set is classed as in vivo.
Data set [17] has as its system aldh5a1−/− mice. The data set can be described thus: Enzyme replacement therapy: survival of aldh5a1−/− mice to DOL 30. Type of data set: in vivo. The settings on record: i.p. 1 mg/kg q.d. from DOL 10; 4 of 5 mice. The text has this:
As a therapeutic approach, enzyme replacement therapy (ERT) has gained prominence in the lysosomal storage disorders, although it should be feasible in organic acidernias (Darvish-Damavandi et al. Mol Genet Metab Rep 8:51-60 (2016)). Applicants examined the feasibility of ERT in aldh5a1−/− mice using a GST (glutathione)-tagged human ALDH5A1 gene construct that overexpresses the GST-hSSADH fusion protein with accompanying ampicillin resistance in E. coli (DNASU Plasmid Repository; Ramachandran et al. (2004)). Crude extracts of E. coli were harvested that had been transfected and grown in standard LB broth supplemented with ampicillin at 37° C. overnight, pelleted and lysed with Pefabloc (protease inhibitor; Sigma-Aldrich, St. Louis, Mo. USA) and lysozyme. GST-hSSADH resident in crude lysates of E. coli was purified using Pierce™ GST spin purification kits, followed by dialysis and subsequent concentration using polyethersulfone (PES) columns. Resultant protein content was quantified using a standard BCA protein assay. The GST-tagged enzyme activity was cleaved with thrombin and the activity of ALDH5A1 determined employing spectrofluorometry based on the NAD/NADH couple (Gibson et al. Clin Chim Acta 196:219-221 (1991)).

In data set [18] the test system is GABAA receptor subunits in aldh5a1−/− mice. In words: Expression of GABA receptor genes after ERT. The settings on record: ERT DOL 30 vs untreated DOL 21.
[19] abbreviates: with NADPH, parent disappearance.

With `O=C(O)Cc1ccccc1Nc1c(Cl)cccc1Cl` [diclofenac], the “effect of co-administration on efficacy of NCS-382 to block sedative and motor effects of GBL” value in [1] was “improved the efficacy”.

In general, Km refers to the concentration of substrate that gives half-maximal velocity. Consider `O=C(O)/C=C1\CCCc2ccccc2C1O` (centres unmarked) [NCS-382], for which, in [2], the “rescue from premature lethality / lifespan extension” value is reported as “effective”. Further, the “brain t½” value in data set [3] (decreasing with increasing dose) lay in the range of 45.6 to 58.2 min. In addition, in data set [3] (dose-dependent), the “plasma elimination t½” value lay within 15 to 40.8 min. In addition, the “blocking the motor deficits induced by GBL” value in data set [4] is “effective”. Moreover, in data set [5], the “expression of the glutamate-cystine antiporter” value is reported as “induced significant down-regulation”, the “solute carriers with aberrant expression normalized” value is recorded as “normalized the aberrant expression of seven” and the “solute carriers without effect” value is given as “had no effect on six”. The “inhibition of GHB transport” value in data set [6] is given as “capable of inhibiting GHB transport”. Besides, the “transport of the compound” value in data set [6] (MDCK) is listed as “actively transported”. Moreover, in [7], the CD36 expression change entry is “↓”, the HTRA4 expression change result is reported as “↑”, the SERPINA3 expression change result is “↓” and the SLC2A3 expression change result is “↓”. Further, in data set [7], the SLC51A expression change entry is on record as “↓” and the TNFRSF1A expression change result is recorded as “↑”. In [8], the “pharmacotoxicity in neural stem cells” value is “only minimal pharmacotoxicity”. In addition, the “Ki, times lower than that of GHB” value in [9] is reported as 14 times. Also, in data set [10] (mouse), the “concentration up to which glucuronide formation was linear” value is “up to 100 μM”. The calculated hepatic clearance in [10] (murine) is reported as 5.2 L/h/kg body weight. Further, the Km in [10] (read-out: Michaelis constant (Km) for dehydrogenation, mouse) stood at 29.5 ± 10 µM. Besides, the “intrinsic clearance (Clint)” value in [10] (setting [19]) amounted to 0.587 mL/min/mg protein. The “cytotoxicity (cellular integrity, survival, organelle function)” value in data set [11] is “little evidence”. Moreover, in [12] (human), the calculated hepatic clearance was 1.2 L/h/kg body weight and the “concentration up to which glucuronide formation was linear” value was “up to 100 μM”. Besides, the Km in [12] (read-out: Michaelis constant (Km) for dehydrogenation, human) stood at 12.7 ± 4.9 µM. Moreover, the “intrinsic clearance (Clint)” value in data set [12] (setting [19]) worked out at 0.513 mL/min/mg protein.

For the molecule `CCC(=O)N1CCN(c2ccc(-n3c(=O)ccc4cnc5ccc(-c6cnc7ccccc7c6)cc5c43)cc2C(F)(F)F)CC1` [Torin 1], in data set [2], the “rescue from premature lethality / lifespan extension” value was “significantly prolong the lifespan”. Besides, in [13] (aldh5a1−/− brain), the “decreased expression of Prkag1 and 2” value is “normalized”. In addition, the “lower expression of Tsc1 and 2” value in [13] (aldh5a1−/− mouse brain) was “normalized”.

As for `NCCS(=O)(=O)O` [taurine], in data set [2], the “rescue from premature lethality / lifespan extension” value is “rescue”.

`CCCCNc1cc(C(=O)O)cc(S(N)(=O)=O)c1Oc1ccccc1` [bumetanide]: the “seizure activity without sedation” value in [14] (25 mg/kg, data not shown) is reported as “reduced seizure activity”. Further, the “seizure activity between injection and onset of immobilization” value in data set [14] (100 mg/kg) is listed as “no seizure activity”. For the same molecule, the “immobilization during the 40 minute recording” value in [15] (25 mg/kg i.p., aldh5a1+/+ or aldh5a1−/−) is recorded as “did not induce immobilization”. Moreover, the immobilization result in data set [15] (100 mg/kg i.p.) is listed as “rapid induction of immobilization”. In addition, the “time to sedation in wild-type mice” value in [15] (100 mg/kg, aldh5a1+/+) is given as “almost instantaneous immobilization”. In [15] (100 mg/kg, aldh5a1−/−), the “period from injection to onset of immobilization” value is 3 to 8 min.

B1: ALDH5A1: bacterially-produced purified human ALDH5A1 (SSADH) enzyme, from GST-hSSADH fusion protein cleaved with thrombin (protein, UniProt P51649 48-535, looked up)
Succinate-semialdehyde …: AGRLAGLSAALLRTDSFVGGRWLPAAATFPVQDPASGAALGMVADCGVREARAAVRAAYEAFCRWREVSAKERSSLLRKWYNLMIQNKDDLARIITAESGKPLKEAHGEILYSAFFLEWFSEEARRVYGDIIHTPAKDRRALVLKQPIGVAAVITPWNFPSAMITRKVGAALAAGCTVVVKPAEDTPFSALALAELASQAGIPSGVYNVIPCSRKNAKEVGEAICTDPLVSKISFTGSTTTGKILLHHAANSVKRVSMELGGLAPFIVFDSANVDQAVAGAMASKFRNTGQTCVCSNQFLVQRGIHDAFVKAFAEAMKKNLRVGNGFEEGTTQGPLINEKAVEKVEKQVNDAVSKGATVVTGGKRHQLGKNFFEPTLLCNVTQDMLCTHEETFGPLAPVIKFDTEEEAIAIANAADVGLAGYFYSQDPAQIWRVAEQLEVGMVGVNEGLISSVECPFGGVKQSGLGREGSKYGIDEYLELKYVCYGGL
modifications: thrombin-cleaved from GST fusion
notes: bacterially-produced purified human ALDH5A1 (SSADH) enzyme, from GST-hSSADH fusion protein cleaved with thrombin
Regarding B1, in data set [16], the GABA in blood result is on record as “trend toward improved levels” and the “GHB in the brain” value was “significant correction”. Further, the “survival rate to 30 days” value in [17] amounted to 80%. Further, in data set [18], the “expression of GABAA receptor subunits (primarily gamma, epsilon and theta)” value is given as “significantly corrected”.
